Where two headings read alike, the source gives them in different places.
Legend:
HRAS wild-type protein = HRAS wild-type protein (Homo sapiens, UniProt P01112); assay: Binding to HRAS by surface plasmon resonance (SPR), KD and KD ratio to KRAS
Summary of the method: (§1)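 Running buffer contained 10 µM GDP and 10 mM MgCl2 to keep RAS in the GDP state, with 4% DMSO at pH 7.4. Compounds were flowed at 100 µL/min in 75 s steps of rising concentration over captured biotin-Avi RAS at 30°C. Sensorgrams were fitted 1:1 for KD.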

[1] = biological target: GDP-bound KRAS wild-type protein (Homo sapiens, UniProt P01116); assay: Binding to KRAS by surface plasmon resonance (SPR), dissociation constant KD
GDP-bound KRAS wild-type protein, sequence (P01116 1-188 isoform P01116-2): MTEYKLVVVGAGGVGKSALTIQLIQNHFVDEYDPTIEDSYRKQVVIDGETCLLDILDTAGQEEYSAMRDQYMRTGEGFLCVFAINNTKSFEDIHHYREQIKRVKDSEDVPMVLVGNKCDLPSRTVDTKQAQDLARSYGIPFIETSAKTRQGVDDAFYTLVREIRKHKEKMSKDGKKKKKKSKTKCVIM
Summary of the method: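 Compound binding is evaluated by SPR single-cycle kinetics, with concentrations added intermittently from low to high for 75 s each. Target surfaces carry GDP-loaded biotinylated Avi-RAS at about 100–300 RU, regenerated after each cycle; temperature 30°C. A 1:1 binding model gives KD.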

[2] = test system: human lung cancer strain NCI-H441; assay: NCI-H441 cell proliferation inhibitory activity (CellTiter-Glo, 4 days); type: cell-based; details: read-out: NCl-H441 IC50
Summary of the method: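 Step one: dispense the test compound in serial DMSO dilutions. Step three: add the reagent and measure […].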

[3] = biological target: GDP-bound NRAS wild-type protein (Homo sapiens, UniProt P01111); assay: Binding to NRAS by surface plasmon resonance (SPR), KD and KD ratio to KRAS
GDP-bound NRAS wild-type protein, sequence (P01111 whole entry): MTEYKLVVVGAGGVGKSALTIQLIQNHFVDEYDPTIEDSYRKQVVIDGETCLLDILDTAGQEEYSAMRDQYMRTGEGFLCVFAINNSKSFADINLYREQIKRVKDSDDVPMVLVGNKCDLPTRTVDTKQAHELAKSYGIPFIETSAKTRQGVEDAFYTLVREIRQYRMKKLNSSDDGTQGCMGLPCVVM
Summary of the method: as §1

[4] = ratio of KD for HRAS wild-type protein to KD for KRAS
[5] = ratio of KD for GDP-bound NRAS wild-type protein to KD for KRAS
[6] = ratio of KD with respect to HRAS wild-type protein to KD with respect to KRAS
[7] = Single Cycle Kinetics, 1:1 binding model
[8] = 50% proliferation inhibitory concentration, four days
[9] = ratio of KD with respect to GDP-bound NRAS wild-type protein to KD with respect to KRAS

HRAS wild-type protein, sequence (P01112 whole entry): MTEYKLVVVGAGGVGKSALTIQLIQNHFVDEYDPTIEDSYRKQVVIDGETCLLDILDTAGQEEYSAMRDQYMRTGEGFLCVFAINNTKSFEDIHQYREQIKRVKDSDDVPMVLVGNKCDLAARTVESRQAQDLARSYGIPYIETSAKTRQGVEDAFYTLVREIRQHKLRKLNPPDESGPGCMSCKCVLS

Compound	HRAS /KRAS (HRAS wild-type protein; [4])	Kd ([1]; Single Cycle Kinetics) [nM]	IC50 ([2]; NCI-H441 cells, 4 days) [nM]	NRAS /KRAS [3, 5]	Kd ([1]; 1:1 binding model) [nM]	HRAS /KRAS (HRAS wild-type protein; [6])	Kd [1, 7] [nM]	IC50 [2, 8] [nM]	NRAS /KRAS [3, 9]
C#CC[C@H]1C(=O)N[C@@H]([C@@H](C)CC)C(=O)N(C2CC2)CC(=O)N(C)[C@H]2C/C=C\CCN(C2=O)[C@@H](Cc2ccc(C(F)(F)F)cc2)C(=O)N(C)CC(=O)N[C@@H](CCc2ccc(C(F)(F)F)c(OC)c2)C(=O)N2C[C@H](OCC)C[C@H]2C(=O)OC2(CCC2)C(=O)N(C)[C@@H](C2CCCC2)C(=O)N(C)[C@H](C(=O)N(C)C)CC(=O)N1C [PP3372]	B (a compound having 3 or more and less than 10 is denoted as B)	1.5	16.8	A (a compound having 10 or more and less than 20 is denoted as A)					
CCOC[C@H]1C(=O)N[C@@H]([C@@H](C)CC)C(=O)N2CCC[C@H]2C(=O)N(C)[C@H]2C/C=C\CCN(C2=O)[C@@H](CC2CCCCC2)C(=O)N(C)CC(=O)N[C@@H](CCc2ccc(C(F)(F)F)c(OC)c2)C(=O)N2C[C@@H](C)C[C@H]2C(=O)N(C)C2(CCC2)C(=O)N(C)[C@@H](C2CCCC2)C(=O)N(C)[C@H](C(=O)N(C)C)CC(=O)N1C [PP2375]	B (a compound having 3 or more and less than 10 is denoted as B)		172	A (a compound having 10 or more and less than 20 is denoted as A)	1.1				
CCO[C@@H]1C[C@H]2C(=O)NC3(CCCC3)C(=O)N(C)[C@@H](C3CCCC3)C(=O)N(C)[C@H](C(=O)N(C)C)CC(=O)N(C)[C@@H](CC)C(=O)N[C@@H]([C@@H](C)CC)C(=O)N(C)CC(=O)N(C)[C@H]3C[C@H](C)C(C)CN(C3=O)[C@@H](Cc3ccc(C(F)(F)F)cc3)C(=O)N(C)CC(=O)N[C@@H](CCc3cc(F)c(C(F)(F)F)c(F)c3)C(=O)N2C1 (stereo partly shown) [PP1347]						B (a compound having 3 or more and less than 10 is denoted as B)	0.017	3.6	B (a compound having 3 or more and less than 10 is denoted as B)
CCC[C@H]1C(=O)N[C@@H]([C@@H](C)CC)C(=O)N(C)CC(=O)N(C)[C@H]2C/C=C\CCN(C2=O)[C@@H](Cc2ccc(C(F)(F)F)cc2)C(=O)N(C)CC(=O)N[C@@H](CCc2cc(F)c(C(F)(F)F)c(F)c2)C(=O)N2CC3(CC3)C[C@H]2C(=O)N(C)C2(CCC2)C(=O)N(C)[C@@H]([C@@H](C)CC)C(=O)N(C)[C@H](C(=O)N(C)C)CC(=O)N1C [PP3358]	A (a compound having 10 or more and less than 20 is denoted as A)	0.11	3.1	A (a compound having 10 or more and less than 20 is denoted as A)					
CCO[C@@H]1C[C@H]2C(=O)NC3(CCC3)C(=O)N(C)[C@@H](C3CCCC3)C(=O)N(C)[C@H](C(=O)N(C)C)CC(=O)N(C)[C@@H](Cc3cccs3)C(=O)N[C@@H]([C@@H](C)CC)C(=O)N(C)CC(=O)N(C)[C@H]3CCCCCN(C3=O)[C@@H](Cc3ccc(C(F)(F)F)cc3)C(=O)N(C)CC(=O)N[C@@H](CCc3cc(F)c(C(F)(F)F)c(F)c3)C(=O)N2C1 [PP1169]						B (a compound having 3 or more and less than 10 is denoted as B)	0.32	74	B (a compound having 3 or more and less than 10 is denoted as B)
CCC[C@H]1C(=O)N[C@@H]([C@@H](C)CC)C(=O)N(C)CC(=O)N(C)[C@H]2C/C=C\CCN(C2=O)[C@@H](Cc2ccc(C)cc2)C(=O)N(C)CC(=O)N[C@@H](CCc2cc(F)c(C(F)(F)F)c(F)c2)C(=O)N2CC3(CC3)C[C@H]2C(=O)N(C)C2(CCC2)C(=O)N(C)[C@@H](C(CC)CC)C(=O)N(C)[C@H](C(=O)N(C)C)CC(=O)N1C [PP3329]	B (a compound having 3 or more and less than 10 is denoted as B)	0.23	8.7	A (a compound having 10 or more and less than 20 is denoted as A)					
CCO[C@@H]1C[C@H]2C(=O)NC3(CCC3)C(=O)N(C)[C@@H](C3CCCC3)C(=O)N(C)[C@H](C(=O)N3CCCCC3)CC(=O)N(C)[C@@H](CC(C)C)C(=O)N[C@@H]([C@@H](C)CC)C(=O)N(C)CC(=O)N(C)[C@H]3C/C=C\CCN(C3=O)[C@@H](Cc3ccc(C(F)(F)F)cc3)C(=O)N(C)CC(=O)N[C@@H](CCc3cc(F)c(C(F)(F)F)c(F)c3)C(=O)N2C1 [PP1290]						A (a compound having 10 or more and less than 20 is denoted as A)	0.24	15.4	AA (a compound having 20 or more is denoted as AA)
